The test system of assay [1] is U-937. Nature of the assay: Inhibition of TNFalpha induced adhesion of TPA treated human U-937 cells to human HT-29 cells at 1 uM pretreated with HT-29 for 1 hr followed by U-937 addition along with TNFalpha stimulation for 3 hrs by fluorescence based microplate reader assay relative to control. In kind it is functional. Particulars: time 4 hrs.
Assay [2] is described as follows: Inhibition of IL6 induced adhesion of TPA treated human U-937 cells to human HT-29 cells at 1 uM pretreated with HT-29 for 1 hr followed by U-937 addition along with IL6 stimulation for 3 hrs by fluorescence based microplate reader assay relative to control. In kind it is functional. The note with it: time 4 hrs.
In assay [3] the test system is HT-29. Kind of assay: Induction of apoptosis in human HT-29 cells assessed as early apoptotic cells at 10 uM incubated for 24 hrs by Annexin V FITC/PI staining based flow cytometry analysis ( Rvb = 0%). In kind it is functional. (In general: A flow cytometer gives signals particle by particle.)
Assay [4] concerns HT-29. Kind of assay: Induction of apoptosis in human HT-29 cells assessed as necrotic cells at 5 uM incubated for 24 hrs by Annexin V FITC/PI staining based flow cytometry analysis ( Rvb = 0.2%). The assay is classed as functional.
Assay [5] relates to U-937. Nature of the assay: Induction of apoptosis in human U-937 cells assessed as viable cells at 5 uM incubated for 24 hrs by Annexin V FITC/PI staining based flow cytometry analysis ( Rvb = 95.2 +/- 0.4%). The assay is classed as functional. Particulars: read-out: Activity.
The subject of assay [6] is U-937. Nature of the assay: Induction of apoptosis in human U-937 cells assessed as late apoptotic cells at 5 uM incubated for 24 hrs by Annexin V FITC/PI staining based flow cytometry analysis ( Rvb = 4 +/- 0.2%). In kind it is functional.
Assay [7] deals with HT-29. Kind of assay: Induction of apoptosis in human HT-29 cells assessed as late apoptotic cells at 5 uM incubated for 24 hrs by Annexin V FITC/PI staining based flow cytometry analysis ( Rvb = 0.7%). The assay is classed as functional.
The subject of assay [8] is HT-29. Nature of the assay: Induction of apoptosis in human HT-29 cells assessed as late apoptotic cells at 10 uM incubated for 24 hrs by Annexin V FITC/PI staining based flow cytometry analysis ( Rvb = 0.7%). In kind it is functional.
In assay [9] the test system is HT-29. Nature of the assay: Induction of apoptosis in human HT-29 cells assessed as necrotic cells at 10 uM incubated for 24 hrs by Annexin V FITC/PI staining based flow cytometry analysis ( Rvb = 0.2%). The assay is classed as functional.
The subject of assay [10] is U-937. Kind of assay: Induction of apoptosis in human U-937 cells assessed as late apoptotic cells at 1 uM incubated for 24 hrs by Annexin V FITC/PI staining based flow cytometry analysis ( Rvb = 4 +/- 0.2%). The assay is classed as functional.
Assay [11] has as its system U-937. Nature of the assay: Induction of apoptosis in human U-937 cells assessed as necrotic cells at 10 uM incubated for 24 hrs by Annexin V FITC/PI staining based flow cytometry analysis( Rvb = 0.2 +/- 0.1%). The assay is classed as functional.
Assay [12] has as its system U-937. Nature of the assay: Induction of apoptosis in human U-937 cells assessed as necrotic cells at 5 uM incubated for 24 hrs by Annexin V FITC/PI staining based flow cytometry analysis ( Rvb = 0.2 +/- 0.1%). In kind it is functional.
The subject of assay [13] is HT-29. Nature of the assay: Induction of apoptosis in human HT-29 cells assessed as viable cells at 10 uM incubated for 24 hrs by Annexin V FITC/PI staining based flow cytometry analysis ( Rvb = 99 +/- 0.1%). The assay is classed as functional. The note with it: read-out: Activity.
For assay [14], the system named is HT-29. Nature of the assay: Mucosal healing effect in TNFalpha induced human HT-29 cells assessed as decrease in epithelial permeability by measuring reduced […] FITC-dextran 4 level at 10 uM pretreated with compound and G1 for 3 hrs followed by TNFalpha addition and subsequent FD4 addition and measured after 2 hrs by fluorescence based assay. The assay is classed as functional, cell-based. The note with it: time 5.0 hrs.

In assay [15] the test system is HT-29. Kind of assay: Induction of apoptosis in human HT-29 cells assessed as viable cells at 5 uM incubated for 24 hrs by Annexin V FITC/PI staining based flow cytometry analysis ( Rvb = 99 +/- 0.1%). The note with it: read-out: Activity. The assay is classed as functional.
Assay [16] concerns HT-29. Kind of assay: Induction of apoptosis in human HT-29 cells assessed as late apoptotic cells at 1 uM incubated for 24 hrs by Annexin V FITC/PI staining based flow cytometry analysis ( Rvb = 0.7%). In kind it is functional.
The subject of assay [17] is HT-29. Nature of the assay: Inhibition of TNFalpha induced nuclear translocation of NF-kappaB in human HT-29 cells at 10 uM pretreated with for 3 hrs followed by TNFalpha addition by Western blotting analysis. The assay is classed as functional, cell-based. Background: In western blotting, separated proteins are transferred to a membrane and probed.
The subject of assay [18] is U-937. Nature of the assay: Induction of apoptosis in human U-937 cells assessed as viable cells at 10 uM incubated for 24 hrs by Annexin V FITC/PI staining based flow cytometry analysis ( Rvb = 95.2 +/- 0.4%). Particulars: read-out: Activity. The assay is classed as functional.
Assay [19] concerns U-937. Kind of assay: Induction of apoptosis in human U-937 cells assessed as early apoptotic cells at 5 uM incubated for 24 hrs by Annexin V FITC/PI staining based flow cytometry analysis ( Rvb = 0.6 +/- 0.1 %). In kind it is functional.
Assay [20] relates to U-937. Kind of assay: Induction of apoptosis in human U-937 cells assessed as early apoptotic cells at 1 uM incubated for 24 hrs by Annexin V FITC/PI staining based flow cytometry analysis ( Rvb = 0.6 +/- 0.1 %). The assay is classed as functional.
Assay [21] has as its system HT-29. Nature of the assay: Mucosal healing effect in TNFalpha induced human HT-29 cells assessed as decrease in epithelial permeability by measuring reduced […] FITC-dextran 4 level at 0.1 to 10 uM pretreated for 3 hrs followed by TNFalpha addition and subsequent FD4 addition and measured after 2 hrs by fluorescence based assay. In kind it is functional, cell-based. Particulars: dose 0.1-10 µM, time 5.0 hrs.

The subject of assay [22] is HT-29. Nature of the assay: Induction of apoptosis in human HT-29 cells assessed as early apoptotic cells at 1 uM incubated for 24 hrs by Annexin V FITC/PI staining based flow cytometry analysis ( Rvb = 0%). The assay is classed as functional.
Assay [23] concerns HT-29. Nature of the assay: Inhibition of TNFalpha induced nuclear translocation of p-STAT3 in human HT-29 cells at 10 uM pretreated with for 3 hrs followed by TNFalpha addition by Western blotting analysis. In kind it is functional, cell-based.
In assay [24] the test system is U-937. Nature of the assay: Induction of apoptosis in human U-937 cells assessed as viable cells at 1 uM incubated for 24 hrs by Annexin V FITC/PI staining based flow cytometry analysis ( Rvb = 95.2 +/- 0.4%). The note with it: read-out: Activity. In kind it is functional.
In assay [25] the test system is HT-29. Kind of assay: Induction of apoptosis in human HT-29 cells assessed as early apoptotic cells at 5 uM incubated for 24 hrs by Annexin V FITC/PI staining based flow cytometry analysis ( Rvb = 0%). The assay is classed as functional.
In assay [26] the test system is U-937. Nature of the assay: Induction of apoptosis in human U-937 cells assessed as late apoptotic cells at 10 uM incubated for 24 hrs by Annexin V FITC/PI staining based flow cytometry analysis ( Rvb = 4 +/- 0.2%). The assay is classed as functional.
In assay [27] the test system is HT-29. Kind of assay: Induction of apoptosis in human HT-29 cells assessed as necrotic cells at 1 uM incubated for 24 hrs by Annexin V FITC/PI staining based flow cytometry analysis ( Rvb = 0.2%). In kind it is functional.
For assay [28], the system named is U-937. Kind of assay: Induction of apoptosis in human U-937 cells assessed as necrotic cells at 1 uM incubated for 24 hrs by Annexin V FITC/PI staining based flow cytometry analysis ( Rvb = 0.2 +/- 0.1%). The assay is classed as functional.
Assay [29] concerns U-937. Kind of assay: Induction of apoptosis in human U-937 cells assessed as early apoptotic cells at 10 uM incubated for 24 hrs by Annexin V FITC/PI staining based flow cytometry analysis ( Rvb = 0.6 +/- 0.1 %). The assay is classed as functional.
For assay [30], the system named is HT-29. Kind of assay: Induction of apoptosis in human HT-29 cells assessed as viable cells at 1 uM incubated for 24 hrs by Annexin V FITC/PI staining based flow cytometry analysis ( Rvb = 99 +/- 0.1%). In kind it is functional. The note with it: read-out: Activity.

Here are results for 15 compounds from ChEMBL document CHEMBL5523723, “G Protein-Coupled Estrogen Receptor-Mediated Anti-Inflammatory and Mucosal Healing Activity of a Trimethylpyridinol Analogue in Inflammatory Bowel Disease” (J Med Chem, 2024).

Activity calls are given as the source filed them. No cut-off for these calls is given here.

As usually defined, the inhibition is how much of the control response was suppressed. Consider `Cc1nc(NC(=O)c2cccc(F)c2)c(C)c(C)c1O`, for which the inhibition at 1 µM stood at 54.1% with U-937 [1] and 44.2% in assay [2].

Turning to `Cc1ccccc1C(=O)Nc1nc(C)c(O)c(C)c1C`, the inhibition at 1 µM with U-937 [1] amounted to 47.3%; in assay [2], 41.5%.

For `Cc1nc(NC(=O)c2ccc(Cl)cc2Cl)c(C)c(C)c1O`, the inhibition at 1 µM in the assay on U-937 [1] worked out at 58.6%; in assay [2] it was 46.4%.

On to `Cc1nc(NC(=O)c2ccc(F)cc2F)c(C)c(C)c1O`, for which the values for the inhibition at 1 µM (with U-937 [1]; in assay [2]) were 71.4% and 62.4%, respectively.

Turning to `Cc1ccc2c(Cl)c(C(=O)Nc3nc(C)c(O)c(C)c3C)sc2c1`, the inhibition at 1 µM in assay [2] came out at 8.7%.

On to `Nc1ccc(O)c(C(=O)O)c1` [MESALAMINE], for which the values for the inhibition at 1 µM (in the assay with U-937 [1]; in [2]) were 9.9% and 1.7%, respectively.

On to `CC(=O)c1ccc2c(c1)[C@@H]1C=CC[C@@H]1[C@H](c1cc3c(cc1Br)OCO3)N2`, for which the Activity in the assay on HT-29 [3] is reported as 4.3%; with HT-29 [4], 2.7%; in the assay on U-937 [6] it was 28.2%; with HT-29 [7] it was 27.9%; in the assay with HT-29 [8] it was 33.3%; in the assay with HT-29 [9], 1%. Besides, the Activity with U-937 [10] came to 16.2%; with U-937 [11] it was 0.4%; in the assay with U-937 [12] it was 0.3%; in the assay on HT-29 [16], 16.9%; with U-937 [19], 5.5%; in the assay with U-937 [20], 7%. Besides, the Activity in the assay on HT-29 [22] stood at 1%; with HT-29 [25], 2.9%; in the assay on U-937 [26] it was 39.2%; with HT-29 [27], 1.3%; in the assay with U-937 [28], 0.6%; in the assay on U-937 [29], 7.2%. In addition, the viability at 5 µM in the assay with U-937 [5] and with HT-29 [15] was 66.6% each time. Further, the values for the viability at 10 µM in the assay with HT-29 [13] and in the assay with U-937 [18] were 61.4% and 53.2%, respectively. Moreover, the outcome with HT-29 [14] and in the assay with HT-29 [21] was Active. The inhibition result with HT-29 [17] and with HT-29 [23] was “Active” in each case. For the same compound, the viability at 1 µM with U-937 [24] is 76.2%; in the assay with HT-29 [30], 80.9%.

Consider `Cc1nc(NC(=O)c2ccc3ccccc3c2)c(C)c(C)c1O`, for which the figures for the inhibition at 1 µM (in the assay with U-937 [1]; in assay [2]) were 42.9% and 33.1%, respectively.

Turning to `Cc1cccc(C(=O)Nc2nc(C)c(O)c(C)c2C)c1`, the inhibition at 1 µM with U-937 [1] was determined as 63.9%; in assay [2] it was 48.9%.

Turning to `Cc1nc(NC(=O)c2ccsc2)c(C)c(C)c1O`, the inhibition at 1 µM with U-937 [1] was 11.5%; in assay [2], 19.3%.

Take `Cc1nc(NC(=O)c2ccccc2Cl)c(C)c(C)c1O`: the inhibition at 1 µM in the assay on U-937 [1] was found to be 7.9%; in assay [2], 15%.

Consider `Cc1ccc(C(=O)Nc2nc(C)c(O)c(C)c2C)o1`, for which the inhibition at 1 µM with U-937 [1] was 79.9%; in assay [2], 70.2%.

Take `COc1ccccc1C(=O)Nc1nc(C)c(O)c(C)c1C`: the inhibition at 1 µM with U-937 [1] turned out to be 58%; in assay [2], 44%.

As to `Cc1nc(NC(=O)c2sc3cc(Cl)ccc3c2Cl)c(C)c(C)c1O`, the inhibition at 1 µM in [2] came out at 9%.

For `Cc1nc(NC(=O)c2ccc(F)cc2)c(C)c(C)c1O`, the inhibition at 1 µM in assay [2] is 5.5%.
